Results on 33 compounds are retold here after patent US9375004B2 (Bayer Intellectual Property GmbH, priority 2010, dated 2016).

Read-outs that look alike come from different tables or passages of the source.

The subject of series [1] is Alternaria solani. Briefly: Alternaria test (tomato)/preventive. The format is in vivo. The note with it: 500 ppm, preventive, evaluated 7 days after inoculation.
The subject of series [2] is Fusarium nivale (var. majus). Briefly: Fusarium nivale (var. majus)-test (wheat)/preventive. The note with it: 500 ppm, preventive, evaluated 5 days after inoculation.
Series [3] is described as follows: logP by HPLC on reversed-phase column (EEC Directive 79/831 Annex V.A8). As to conditions: EEC Directive 79/831 Annex V.A8.
The subject of series [4] is Venturia inaequalis. The series can be described thus: Venturia test (apples)/preventive. The note with it: 100 ppm, preventive, evaluated 10 days after inoculation.
Method: Venturia Test (Apples)/Preventive
(§1) Solvent: 24.5 parts by weight of acetone • 24.5 parts by weight of N,N-dimethylformamide
(§2) Emulsifier: 1 part by weight of alkylaryl polyglycol ether
After the spray coating has dried on, the plants are inoculated with an aqueous conidia suspension of the causal agent of apple scab (Venturia inaequalis) and then remain for 1 day in an incubation cabinet at approximately 20° C. and a relative atmospheric humidity of 100%.
The plants are then placed in a greenhouse at approximately 21° C. and a relative atmospheric humidity of approximately 90%.
The test is evaluated 10 days after the inoculation.
For series [5], the system named is Uromyces appendiculatus. The note with it: 100 ppm, beans, preventive, evaluated 10 days after inoculation.
Series [6] has as its system Pyrenophora teres. Briefly: Pyrenophora teres-test (barley)/preventive. In kind it is in vivo. As to conditions: 500 ppm, preventive, evaluated 8 days after inoculation.
The subject of series [7] is Puccinia triticina. The series can be described thus: Puccinia triticina-test (wheat)/preventive. In kind it is in vivo. As to conditions: 500 ppm, preventive, evaluated 8 days after inoculation.
The test system of series [8] is Sphaerotheca fuliginea. The series can be described thus: Sphaerotheca test (cucumber)/preventive. In kind it is in vivo. As to conditions: 500 ppm, preventive, evaluated 7 days after inoculation.
Series [9] concerns Botrytis cinerea. The series can be described thus: Botrytis test (beans)/preventive. As to conditions: 100 ppm, preventive, lesion size 2 days after inoculation.
Method: Botrytis Test (Beans)/Preventive
as §1, §2
After the spray coating has dried on, 2 small pieces of agar covered with growth of Botrytis cinerea are placed on each leaf. The inoculated plants are placed in a darkened chamber at 20° C. and a relative atmospheric humidity of 100%.
2 days after the inoculation, the size of the lesions on the leaves is evaluated.
Setting [10] is: HPLC on reversed-phase column (C 18).
The mark [11] stands for this setting: HPLC on a reversed-phase column (C 18).

Usually logP stands for the decadic logarithm of the partition coefficient of the neutral form, usually between octanol and water. A lower logP goes with a more hydrophilic compound. Consider `CC1CC(C)(C)c2cccc(NC(=O)c3c(C(F)F)nn(C)c3Cl)c21` (stereo not drawn) [Example 65], for which the Efficacy in series [1] is 80%; in series [2] it was 86%; in series [4], 98%; in series [5], 100%; in series [6] it was 100%; in series [7] it was 100%. In [3] (setting [10]), this compound displayed a logP of 4.04.
Regarding `Cn1nc(C(F)F)c(C(=O)Nc2ccc(F)cc2-c2ccc(F)cc2)c1F` [Example 77], the Efficacy in [1] and in series [8] was 95% in each case. In addition, the logP in series [3] (setting [10]) is given as 3.16.
`Cn1nc(C(F)F)c(C(=O)Nc2cccc(Oc3cccc(C(F)(F)F)c3)c2)c1Cl` [Example 255]: the Efficacy in [2] turned out to be 100%; in [5], 73%; in [7] it was 94%. Further, the logP in [3] (setting [11]) is 3.89.
`Cn1nc(C(F)F)c(C(=O)Nc2cccc(OC(F)(F)C(F)F)c2)c1Cl` [Example 188] displayed a logP in [3] (setting [10]) of 3.09. In addition, the Efficacy in [5] is recorded as 100%; in series [6], 92%; in series [7] it was 100%.
`Cn1nc(C(F)F)c(C(=O)Nc2ccc(F)cc2-c2ccc(F)cc2)c1Cl` [Example 79]: the Efficacy is 90% in series [1] and 95% in series [8]. In addition, the logP in [3] (setting [10]) is 3.41.
As for `CC1CCCC(c2ccccc2NC(=O)c2c(C(F)F)nn(C)c2Cl)C1` (stereo not drawn) [Example 53], the Efficacy is recorded as 100% in series [1]; 94% in series [9]; 100% in [4]; 100% in series [5]; 100% in series [8]. For the same compound, the logP in series [3] (setting [10]) is given as 4.29.
On to `Cn1nc(C(F)F)c(C(=O)Nc2c(F)cccc2-c2ccc(Cl)c(Cl)c2)c1F` [Example 115], for which the Efficacy was found to be 95% in [1]; 86% in series [2]; 94% in [9]; 100% in series [4]; 100% in series [5]; 88% in series [7]. The same compound registered a logP in [3] (setting [10]) of 3.50.
Turning to `Cn1nc(C(F)F)c(C(=O)Nc2ccccc2-c2ccc(Br)cc2)c1Cl` [Example 140], the Efficacy is listed as 86% in [2]; 98% in series [9]; 100% in series [4]; 100% in [5]; 100% in [6]; 100% in series [7]. Moreover, in series [3] (setting [10]), the logP is recorded as 3.88.
Consider `Cn1nc(C(F)F)c(C(=O)Nc2ccccc2-c2cc(F)c(F)c(F)c2)c1F` [Example 104], for which the Efficacy in series [9], in series [4], in series [5] (listed as 104 from this invention), in series [6] and in [7] was 100% in each case. Moreover, the logP in [3] (setting [10]) was determined as 3.30.
Take `C=C(C)COc1cccc(NC(=O)c2c(C(F)F)nn(C)c2F)c1` [Example 176]: the Efficacy in series [2], in series [6] and in series [7] was 100% in each case. Besides, in series [3] (setting [10]), the logP turned out to be 3.15.
Take `Cn1nc(C(F)F)c(C(=O)Nc2ccccc2-c2ccccc2)c1F` [Example 73]: the Efficacy in series [1] came to 90%; in series [8], 75%. Further, the logP in [3] (setting [10]) is on record as 3.25.
As for `CCCC(C)c1ccccc1NC(=O)c1c(C(F)F)nn(C)c1F` (stereo not drawn) [Example 8], the Efficacy in series [1] was 95%; in series [9] it was 98%; in [4], 100%; in series [5] it was 100%; in [6], 100%; in series [7] it was 100%. Besides, the logP in [3] (setting [10]) came to 3.55.
With `CCCC(C)c1ccccc1NC(=O)c1c(C(F)F)nn(C)c1Cl` (stereo not drawn) [Example 9], the Efficacy in [1] was determined as 95%; in series [2], 100%; in [4], 100%; in [5] it was 100%; in series [6] it was 100%; in [7], 100%. For the same compound, in series [8], the Efficacy stood at 100%. Besides, the logP in [3] (setting [10]) was determined as 3.77.
Take `Cn1nc(C(F)F)c(C(=S)Nc2ccccc2-c2ccc(Br)cc2)c1Cl` [Example 141]: the figures for the Efficacy in series [1] and in series [8] were 70% and 95%, respectively. Also, the logP in series [3] (setting [10]) turned out to be 3.96.
The matching figures for `Cn1nc(C(F)F)c(C(=O)Nc2ccccc2-c2ccc(F)cc2)c1F` [Example 80]: 95%, 98% and 3.20.
In the case of `Cn1nc(C(F)F)c(C(=S)Nc2ccccc2-c2ccc(Cl)c(F)c2)c1Cl` [Example 101], the Efficacy is recorded as 80% in series [1]; 100% in [2]; 100% in [6]; 100% in [7]; 95% in series [8]. This compound yielded a logP in series [3] (setting [10]) of 3.92.
For the compound `Cn1nc(C(F)F)c(C(=O)Nc2ccccc2-c2ccc(Br)cc2Cl)c1Cl` [Example 154], the Efficacy in series [1] was 95%; in series [9], 78%; in series [4] it was 100%; in series [5], 100%; in series [8], 100%. Also, the logP in series [3] (setting [10]) turned out to be 4.16.
As for `Cn1nc(C(F)F)c(C(=O)Nc2ccccc2-c2cc(F)c(F)cc2F)c1F` [Example 107], the results for the Efficacy in [1] and in [8] were 100% and 88%, respectively. The compound also displayed a log partition coefficient (logP) in [3] (setting [10]) of 3.25.
For `Cc1cc(Cl)ccc1Oc1cccc(NC(=O)c2c(C(F)F)nn(C)c2F)c1` [Example 254], the Efficacy in [1] turned out to be 70%. Further, the logP in series [3] (setting [11]) is listed as 4.19.
Take `Cn1nc(C(F)F)c(C(=O)Nc2ccccc2-c2cccc(Cl)c2)c1Cl` [Example 87]: the Efficacy in series [1] and in series [8] was 95% throughout. The log partition coefficient (logP) in series [3] (setting [10]) is given as 3.87.
Take `Cn1nc(C(F)F)c(C(=O)Nc2ccccc2-c2ccc(Cl)c(Cl)c2)c1Cl` [Example 126]: the Efficacy in [1] worked out at 89%; in [2], 100%; in series [4], 75%; in [5], 96%; in series [6], 100%; in series [7] it was 100%. This compound returned an Efficacy in series [8] of 100%. In series [3] (setting [10]), this compound showed a logP of 4.14.
Take `Cn1nc(C(F)F)c(C(=O)Nc2cccc3c2CCC3)c1F` [Example 54]: the Efficacy in series [1] is listed as 70%. In [3] (setting [10]), this compound registered a logP of 2.94.
`Cn1nc(C(F)F)c(C(=O)Nc2ccccc2-c2ccc(-c3ccccc3)cc2)c1Cl` [Example 138] registered a logP in series [3] (setting [10]) of 4.61. Further, the values for the Efficacy in [6], in series [7] and in series [8] were 86%, 100% and 100%, respectively.
For the compound `Cn1nc(C(F)F)c(C(=O)Nc2ccccc2C(C)(C)C)c1F` [Example 3], the Efficacy was found to be 94% in series [1] and 98% in series [8]. In addition, in series [3] (setting [10]), the logP was determined as 2.98.
For the compound `Cn1nc(C(F)F)c(C(=O)Nc2cccc(OC(F)(F)F)c2)c1Cl` [Example 181], in series [3] (setting [10]), the logP is 3.25. In addition, the Efficacy in [5] stood at 100%.
Take `Cc1ccccc1-c1ccccc1NC(=O)c1c(C(F)F)nn(C)c1F` [Example 75]: the Efficacy in series [1] was 94%; in series [6], 100%; in series [7], 70%. Also, the logP in series [3] (setting [10]) amounted to 3.74.
On to `CC(C)Oc1cccc(NC(=O)c2c(C(F)F)nn(C)c2Cl)c1` [Example 169], for which the Efficacy is given as 71% in series [2]; 96% in series [4]; 100% in [5]; 100% in series [6]; 100% in series [7]. The same compound had a lipophilicity (logP) in series [3] (setting [10]) of 2.98.
`Cn1nc(C(F)F)c(C(=O)Nc2ccccc2-c2ccccc2)c1Cl` [Example 74] registered an Efficacy in series [1] of 78%. For the same compound, in series [3] (setting [10]), the logP came out at 3.59.
Regarding `Cn1nc(C(F)F)c(C(=O)Nc2ccccc2-c2ccc(-c3ccccc3)cc2)c1F` [Example 137], the Efficacy is given as 95% in [1]; 100% in series [4]; 99% in series [5]; 93% in [6]; 100% in series [7]; 100% in [8]. Further, the logP in series [3] (setting [10]) is on record as 4.27.
Take `Cn1nc(C(F)F)c(C(=O)Nc2ccccc2OC(F)(F)C(F)C(F)(F)F)c1F` (stereo not drawn) [Example 32]: the Efficacy in series [1] is given as 95%. The compound also showed a logP in series [3] (setting [10]) of 3.48.
`Cn1nc(C(F)F)c(C(=O)Nc2cccc3c2CCC3)c1Cl` [Example 55]: the Efficacy in series [2] amounted to 83%; in series [6], 71%; in series [7], 100%. The compound also yielded a logP in series [3] (setting [10]) of 3.19.
In the case of `Cn1nc(C(F)F)c(C(=O)Nc2ccccc2-c2ccc(Br)cc2Cl)c1F` [Example 155], the Efficacy in [1] was determined as 95%; in [9] it was 100%; in series [4], 100%; in series [5], 100%. In addition, the logP in series [3] (setting [10]) amounted to 3.85.
For `Cn1nc(C(F)F)c(C(=O)Nc2ccccc2-c2ccc(F)cc2)c1Cl` [Example 78], the Efficacy is listed as 90% in [1] and 75% in [8]. In series [3] (setting [10]), this compound registered a logP of 3.40.
